In paper PMC12096834, “Antimicrobial peptide plectasin recombinantly produced in Escherichia coli disintegrates cell walls of gram-positive bacteria, as proven by transmission electron and atomic force microscopy” (Journal of Bacteriology, 2025):

Tests used:
Format in all cases: cell-based
[1] = system: Enterococcus faecalis; test: TEM quantification of cells with visible damage
Method: (§1) Suspensions of gram-positive bacteria were prepared by taking bacterial colonies out of overnight grown agar plates and resuspending them in MHB. The suspension was set to an OD625 extinction of 0.15–0.20 corresponding to a bacterial cell density of approximately 2 × 10^8 CFU/mL. Then, 3 × 1 mL of suspension was transferred into a 2-mL reaction tube and mixed with either plectasin, CASPON-plectasin, or PBS buffer to obtain volume conditions. The concentration for plectasin was 4 x MIC, and CASPON-plectasin was of the same molar quantity as plectasin. After incubation, the bacterial suspensions were washed with PBS three times, using mild centrifugation conditions for each wash cycle (3,000 g, 15 minutes) to avoid cell damage. Prior to sample preparation, mesh copper grids were pretreated with pioloform film and a thin carbon layer. Additionally, the grids were plasma-cleaned for 10 seconds. All samples were prepared by a negative staining procedure. Sample droplets were placed on copper grids for 10 minutes. Afterward, the grids were placed on a 2% glutaraldehyde in 0.1 M phosphate buffer, washed three times with HQ water, and stained with 1% uranyl acetate for 30 seconds. Grids were then analyzed in the TEM FEI Tecnai G^2 200 kV (Thermo Fisher Scientific, Waltham, MA) under high vacuum with 160 kV. For quantification, each condition (untreated, plectasin-treated, and CASPON-plectasin-treated) and each bacterial strain (the four mentioned above) were analyzed using two independent grid squares per biological duplicate, thus yielding a total of four grid squares per condition. Grid squares comprising ≥11 cells were selected for analysis, and the cells were counted and categorized as “no visible damage” or “visible damage”. Percentages and standard deviations were subsequently calculated for each condition. An example of counting the cells can be found in the supplementary material (Fig. S2).

[2] = system: Listeria monocytogenes; test: TEM quantification of cells with visible damage
Method: as §1

[3] = system: Staphylococcus aureus; test: TEM quantification of cells with visible damage
Method: as §1

[4] = system: Streptococcus pneumoniae; test: TEM quantification of cells with visible damage
Method: as §1

[5] = system: Enterococcus faecalis; test: AFM cell thickness, stiffness and roughness; details: plectasin 4 x MIC, CASPON-plectasin same molar quantity, mean ± SD of 20 measurements; for Stiffness: AFM force spectroscopy, untreated 8.0 ± 3.7
Method: All AFM measurements were performed on a Vecoo-Bruker AFM (Diamond, Chilton, UK), including imaging and force distance measurement. Before and after measurements, the triangular cantilever was cleaned with EtOH and acetone. Sensitivity and the spring constant were calibrated by the thermal tune method by making use of the equipartition theorem, preceded by continued ramping. After calibration, the spring constant was set to 0.4017 N/m for performing measurements.
Bacterial suspensions were prepared by taking bacterial colonies out of overnight grown agar plates and resuspending them in MHB. The suspension was set to an OD625 extinction of 0.15–0.20 corresponding to a bacterial cell density of approximately 2 × 10^8 CFU/mL. Then, 3 × 1 mL of suspension was transferred into a 2-mL reaction tube and mixed with either plectasin, CASPON-plectasin, or PBS buffer to obtain volume conditions. The concentration for plectasin was 4 x MIC, and CASPON-plectasin was of the same molar quantity as plectasin. After incubation, the bacterial suspensions were washed with PBS three times, using mild centrifugation conditions for each wash cycle (3,000 g, 15 minutes) to avoid cell damage. The washed bacterial suspension was transferred to borosilicate glass slides (24 mm diameter, 0.1 mm thickness, Menzel Gläser, Braunschweig, Germany) and left to adhere to the surface (electrostatics) for 1 hour. Afterward, the slides were washed with MilliQ water and transferred to AFM.
Bacterial images were visualized by square areas of 2 × 2 µm^2 up to 25 × 25 µm^2 with a resolution of 512 × 512 pixels. At least 15 images were taken per sample with different square dimensions for proper visualization. Surface roughness and shapes of the bacterial cell were estimated using Gwyddion software after applying a mean filter to the raw images. A total of 20 measurements were taken on cells for each parameter, providing enough values for statistical evaluation. For additional information and an illustration of the determination principle, please refer to the supplementary material (Fig. S3), which includes an example on S. aureus. By using the following equations, the surface roughness of a selected area of this flattened area was calculated from the standard deviation in the height image. The mean roughness (Ra) and the root-mean-square roughness (Rq or RMS) were used to characterize the surface of different samples:
After the position of the bacteria was determined, force spectroscopy was performed. Measurement of the central region of bacteria was performed with an approach speed of 10 µm/s and a maximum force of 2 nN. A curve length of 1 µm and a sampling rate of 2 kHz were used. At least 20 bacteria per sample were measured. Analysis of the force distance curves was performed using the software NanoScope Analysis 1.5. For calculating the stiffness of each bacterial cell, the following question was utilized:
where keff is the effective stiffness (received from the slope of the measured curve), ksample is the stiffness of the sample (bacterial cell), and kspring is the spring constant (0.4017 N/m). All constants have the unit N/m. Rearrangement of the formula leads to the following relation: […]
Measurements were pooled, and properties were calculated as described above. For each parameter, 20 measurements were used to obtain appropriate statistical values. Analysis of variance (ANOVA) was performed, followed by Student’s t-test, which is a statistical procedure that compares the averages of two independent groups (plectasin/CASPON-plectasin treated vs untreated) to determine significance in the surface roughness and stiffness of bacteria. Significances are indicated in figures and reported as “ns” for P > 0.05, “*” for P ≤ 0.05, “**” for P ≤ 0.01, and “***” for P ≤ 0.001.

Compound: CC[C@H](C)[C@@H]1NC(=O)[C@H](CO)NC(=O)[C@H](CCCCN)NC(=O)[C@@H]2CSSC[C@@H](C(=O)N[C@@H](Cc3ccc(O)cc3)C(=O)O)NC(=O)[C@H](CCCCN)NC(=O)[C@@H]3CSSC[C@H](NC(=O)[C@H](CCC(N)=O)NC(=O)[C@H](CCSC)NC(=O)[C@H](CC(=O)O)NC(=O)[C@H](CC(=O)O)NC(=O)[C@H](CCC(=O)O)NC(=O)[C@H](CC(=O)O)NC(=O)[C@H](Cc4c[nH]c5ccccc45)NC(=O)[C@@H]4CCCN4C(=O)CNC(=O)[C@H](CC(N)=O)NC(=O)[C@@H](NC(=O)CNC(=O)[C@H](Cc4ccccc4)NC(=O)CN)CSSC[C@H](NC(=O)[C@H](Cc4ccc(O)cc4)NC(=O)CNC(=O)CNC(=O)[C@H](CCCCN)NC(=O)[C@H](Cc4ccc(O)cc4)NC(=O)CNC(=O)[C@H](CCCCN)NC1=O)C(=O)N[C@@H](C)C(=O)N[C@@H](CCCCN)C(=O)NCC(=O)NCC(=O)N[C@@H](Cc1ccccc1)C(=O)N[C@@H](C(C)C)C(=O)N3)C(=O)N[C@@H](Cc1c[nH]cn1)C(=O)N[C@@H](CC(N)=O)C(=O)N[C@@H](Cc1c[nH]cn1)C(=O)N2 [Plectasin, plectasin]
- No visible damage (%) ([1]; Grid Square 1): 29.41%
- Visible damage (%) ([1]; Grid Square 1): 70.59%
- No visible damage (%) ([1]; Grid Square 2): 28.57%
- Visible damage (%) ([1]; Grid Square 2): 71.43%
- No visible damage (%) ([1]; Grid Square 3): 21.05%
- Visible damage (%) ([1]; Grid Square 3): 78.95%
- No visible damage (%) ([1]; Grid Square 4): 27.78%
- Visible damage (%) ([1]; Grid Square 4): 72.22%
- cells with visible damage ([1]; negative staining, plectasin 4 x MIC, CASPON-plectasin same molar quantity, mean ± SD of four grid squares (two biological replicates), untreated 4.07, SD): 73.30% ± 3.31%
- cells with no visible damage ([1]; negative staining, plectasin 4 x MIC, CASPON-plectasin same molar quantity, mean ± SD of four grid squares, untreated 95.93% ± 2.41%): 26.70%
- No visible damage (%) ([2]; Grid Square 1): 9.09%
- Visible damage (%) ([2]; Grid Square 1): 90.91%
- No visible damage (%) ([2]; Grid Square 2): 34.48%
- Visible damage (%) ([2]; Grid Square 2): 65.52%
- No visible damage (%) ([2]; Grid Square 3): 18.18%
- Visible damage (%) ([2]; Grid Square 3): 81.82%
- No visible damage (%) ([2]; Grid Square 4): 18.75%
- Visible damage (%) ([2]; Grid Square 4): 81.25%
- cells with visible damage ([2]; negative staining, plectasin 4 x MIC, CASPON-plectasin same molar quantity, mean ± SD of four grid squares (two biological replicates), untreated 6.97, SD): 79.87% ± 9.13%
- cells with no visible damage ([2]; negative staining, plectasin 4 x MIC, CASPON-plectasin same molar quantity, mean ± SD of four grid squares, untreated 93.03% ± 4.81%): 20.13%
- No visible damage (%) ([3]; Grid Square 1): 7.69%
- Visible damage (%) ([3]; Grid Square 1): 92.31%
- No visible damage (%) ([3]; Grid Square 2): 16.67%
- Visible damage (%) ([3]; Grid Square 2): 83.33%
- No visible damage (%) ([3]; Grid Square 3): 5.88%
- Visible damage (%) ([3]; Grid Square 3): 94.12%
- No visible damage (%) ([3]; Grid Square 4): 11.76%
- Visible damage (%) ([3]; Grid Square 4): 88.24%
- cells with visible damage ([3]; negative staining, plectasin 4 x MIC, CASPON-plectasin same molar quantity, mean ± SD of four grid squares (two biological replicates), untreated 10.10, SD): 89.50% ± 4.15%
- cells with no visible damage ([3]; negative staining, plectasin 4 x MIC, CASPON-plectasin same molar quantity, mean ± SD of four grid squares, untreated 89.90% ± 4.88%): 10.50%
- No visible damage (%) ([4]; Grid Square 1): 11.11%
- Visible damage (%) ([4]; Grid Square 1): 88.89%
- No visible damage (%) ([4]; Grid Square 2): 16.22%
- Visible damage (%) ([4]; Grid Square 2): 83.78%
- No visible damage (%) ([4]; Grid Square 3): 13.33%
- Visible damage (%) ([4]; Grid Square 3): 86.67%
- No visible damage (%) ([4]; Grid Square 4): 8.33%
- Visible damage (%) ([4]; Grid Square 4): 91.67%
- cells with visible damage ([4]; negative staining, plectasin 4 x MIC, CASPON-plectasin same molar quantity, mean ± SD of four grid squares (two biological replicates), untreated 15.20, SD): 87.75% ± 2.90%
- cells with no visible damage ([4]; negative staining, plectasin 4 x MIC, CASPON-plectasin same molar quantity, mean ± SD of four grid squares, untreated 84.80% ± 3.71%): 12.25%
- Stiffness [5]: approximately 4 N/m
- Stiffness ([5]; SD): 4.6 ± 1.9 N/m
- Ra (mean roughness) ([5]; AFM, untreated 10.0 ± 2.5, SD): 19.4 ± 3.2 nm
- Rq (root-mean-square roughness) ([5]; AFM, untreated 12.2 ± 3.4, SD): 23.5 ± 3.4 nm
- Cell thickness ([5]; AFM, untreated 480.3 ± 30.6, SD): 473.5 ± 47.5 nm
